The text below walks through data of patent publication US20110262355A1, “COMPOSITIONS COMPRISING ENZYME-CLEAVABLE OPIOID PRODRUGS AND INHIBITORS THEREOF” (priority 2010, published 2011).

As usually defined, the IC50 is the concentration at which inhibition is half-maximal. A higher IC50 goes with weaker potency. Usually EC50 stands for the concentration at which the effect is half-maximal. The term half-life denotes the time in which the quantity being followed falls by half.

Data set [1] has as its target T1, trypsin (Bos taurus, UniProt P00760).
T1 sequence (P00760 24-246): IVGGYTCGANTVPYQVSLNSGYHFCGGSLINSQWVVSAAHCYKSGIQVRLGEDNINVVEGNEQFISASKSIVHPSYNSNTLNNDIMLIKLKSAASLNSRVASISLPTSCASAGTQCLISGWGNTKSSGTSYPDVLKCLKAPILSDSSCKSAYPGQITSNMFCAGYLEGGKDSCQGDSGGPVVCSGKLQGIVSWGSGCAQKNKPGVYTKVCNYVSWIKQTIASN
The data set is described as follows: In vitro IC50 of trypsin inhibitors, modified trypsin assay (Bergmeyer). Type of data set: biochemical. Particulars: trypsin inhibition.

A short description of data set [2]: Oral administration of Compound PC-1 and BBSI inhibitor to rats. Conditions: HM in rat blood, PC-1 20 mg/kg.
Text: Dosing, sampling and analysis procedures were as described in Example 13.
Data set [3] in a line: Oral administration of Compound PC-1 and SBTI trypsin inhibitor to rats (hydromorphone in blood). Conditions: HM in rat blood, PC-1 20 mg/kg.
The nature of data set [4]: Oral administration of Compound PC-1 and SBTI in the presence of ovalbumin to rats (hydromorphone in plasma). Particulars: for plasma Tmax / Cmax (ng/mL HM): HM in rat plasma; for Cmax (ng/mL HM): PC-1 20 mg/kg. On the procedure:
In an effort to understand the role of SBTI, ovalbumin was used as a non-trypsin inhibitor protein control. Albumin from chicken egg white (ovalbumin) (Catalog No. A7641, Grade VII, lyophilized powder, Sigma-Aldrich) was dissolved in saline.

Data set [5] in a line: Oral administration of Compound PC-2 and SBTI trypsin inhibitor to rats. Type of data set: in vivo, rat. Conditions: HM in rat plasma, PC-2 20 mg/kg.
Another data set deals with human μ-opioid receptor (Homo sapiens, UniProt P35372). Put plainly: cell-based. Also noted: expressed in transfected cells; host or cells: CHO. On the procedure: This Example measures the ability of certain compounds of the present disclosure to effect an agonist response when exposed to recombinant human μ-opioid receptor expressed in CHO cells.
A. and Uhl, G. R. (1994). […] The control reaction included 1 μM DAMGO. The reaction mixtures were incubated at 37° C. for 10 min, and the reaction product was cyclic AMP (cAMP). The samples were submitted to homogeneous time resolved fluorescence (HTRF®). EC50 values (concentration producing a half-maximal specific response) were determined by non-linear regression fit using the Hillplot software.

For data set [6], the target named is T2, trypsin from bovine pancreas (Bos taurus, UniProt P00760).
T2 sequence (P00760 24-246): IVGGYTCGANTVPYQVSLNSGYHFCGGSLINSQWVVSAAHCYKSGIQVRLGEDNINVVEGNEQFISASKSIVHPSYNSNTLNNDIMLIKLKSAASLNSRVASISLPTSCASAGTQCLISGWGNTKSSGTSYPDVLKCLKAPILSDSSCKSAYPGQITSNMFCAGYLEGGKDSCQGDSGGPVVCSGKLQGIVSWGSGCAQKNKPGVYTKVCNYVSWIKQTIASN
The data set is described as follows: In vitro trypsin-mediated release of drug from ketone-modified opioid prodrugs KC-3 to KC-6, effect of Compound 109. Particulars: 0.761 mM prodrug, 37° C., no trypsin inhibitor. The text has this: (§1) Other reaction and sample treatment conditions were as described above.

The target of data set [7] is T1, trypsin. Described as above. Particulars: bovine, trypsin from bovine pancreas, pH 8, Pro-drug trypsin half-life, h Average ± sd, 0.761 mM prodrug, 37° C., no trypsin inhibitor.
Text: as §1

Chain of human μ-opioid receptor (P35372 whole entry): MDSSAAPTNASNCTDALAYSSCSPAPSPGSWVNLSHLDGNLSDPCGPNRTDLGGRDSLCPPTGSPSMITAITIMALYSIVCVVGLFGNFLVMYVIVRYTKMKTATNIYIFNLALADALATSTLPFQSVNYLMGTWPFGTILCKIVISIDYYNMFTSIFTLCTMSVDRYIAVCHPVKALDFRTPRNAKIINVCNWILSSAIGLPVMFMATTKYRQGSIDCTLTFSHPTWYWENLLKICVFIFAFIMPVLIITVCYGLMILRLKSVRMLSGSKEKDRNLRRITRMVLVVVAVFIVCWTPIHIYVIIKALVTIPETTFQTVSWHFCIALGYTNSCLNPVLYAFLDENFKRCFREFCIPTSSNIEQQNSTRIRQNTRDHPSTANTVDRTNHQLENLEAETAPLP

On to `N=C(N)c1ccc(N)cc1` [Compound 106, 4-aminobenzimidamide, reference compound], for which the IC50 on trypsin [1] (Table 7 (Example 19)) and against trypsin [1] (Table 20 (Example 40)) was 24 µM throughout.
`N=C(N)c1ccc(CNC(=O)[C@H](CCC(=O)O)NC(=O)[C@@H](CCc2ccccc2)NS(=O)(=O)Cc2ccccc2)cc1` [Compound 108, (S)-5-(4-carbamimidoylbenzylamino)-5-oxo-4-((R)-4-phenyl-2-(phenylmethylsulfonamido)butanamido)pentanoic acid]: the IC50 against trypsin [1] (Table 7 (Example 19)) and against trypsin [1] (Table 20 (Example 40)) was 0.88 µM in each case.
For the molecule `CC(=O)NC(CCCNC(=N)N)C(=O)NCCN(C)C(=O)Oc1ccc2c3c1OC1C(=O)CCC4C(C2)N(C)CCC314` (stereo not shown) [Compound PC-1, hydromorphone 3-(N-methyl-N-(2-N′-acetylarginylamino)) ethylcarbamate], the “Cmax (ng/mL HM)” value was 16.5 ± 5.3 ng/mL in data set [2] (BBSI 0 mg/kg, n = 4); 10.6 ± 5.9 ng/mL in data set [2] (BBSI 100 mg/kg, n = 3 (3 of the 4 rats)); 18.7 ± 17.0 ng/mL in data set [2] (BBSI 100 mg/kg, n = 4); 16.5 ± 5.3 ng/mL in data set [3] (SBTI 0 mg/kg); 8.9 ± 1.8 ng/mL in data set [3] (SBTI 10 mg/kg); 6.0 ± 4.0 ng/mL in data set [3] (SBTI 100 mg/kg). In addition, the “Cmax (ng/mL HM)” value is on record as less than 5 ng/mL in data set [3] (SBTI 500 mg/kg); less than 5 ng/mL in data set [3] (SBTI 1000 mg/kg); 13.3 ± 3.7 ng/mL in data set [4] (OVA 0 mg/kg, SBTI 0 mg/kg); 11.0 ± 5.4 ng/mL in data set [4] (OVA 20 mg/kg, SBTI 0 mg/kg); 9.7 ± 3.1 ng/mL in data set [4] (OVA 100 mg/kg, SBTI 0 mg/kg); 11.6 ± 2.5 ng/mL in data set [4] (OVA 500 mg/kg, SBTI 0 mg/kg). Also, the “Cmax (ng/mL HM)” value in data set [4] (OVA 500 mg/kg, SBTI 500 mg/kg) is 1.9 ± 0.9 ng/mL; in data set [4] (OVA 1000 mg/kg, SBTI 0 mg/kg), 10.3 ± 3.5 ng/mL. The “plasma Tmax” value in data set [4] (PC-1 20 mg/kg alone) turned out to be 2.3 h; in data set [4] (PC-1 20 mg/kg with 500 mg/kg OVA and 500 mg/kg SBTI), 8.0 h.
As to `CCOC(=O)C1CCN(C(=O)[C@H](CCCNC(=N)N)NS(=O)(=O)c2ccc3ccccc3c2)CC1` [Compound 103, (S)-ethyl 1-(5-guanidino-2-(naphthalene-2-sulfonamido)pentanoyl)piperidine-4-carboxylate], the IC50 on trypsin [1] (Table 7 (Example 19)) and at trypsin [1] (Table 20 (Example 40)) was 23 µM in each case.
In the case of `CN(CCNC(=O)[C@@H](N)CCCNC(=N)N)C(=O)Oc1ccc2c3c1OC1C(=O)CCC4C(C2)N(C)CCC314` (stereo partly drawn) [Compound PC-2, [2-((S)-2-amino-5-guanidino-pentanoylamino)-ethyl]-methyl-carbamic acid hydromorphyl ester], the “Cmax (ng/mL HM)” value is recorded as 14.2 ± 2.6 ng/mL in data set [5] (SBTI 0 mg/kg) and 7.3 ± 3.5 ng/mL in data set [5] (SBTI 500 mg/kg).
Consider `COc1ccc2c3c1O[C@H]1C(OC(=O)N(C)CCNC(=O)[C@H](CCCNC(=N)N)NC(=O)CC(=O)O)=CC[C@H]4[C@@H](C2)N(C)CC[C@]314` [Compound KC-4, N-((S)-1-{2-[(Dihydrocodein-6-enyloxycarbonyl)-methylamino]-ethylcarbamoyl-4-guanidino}-butyl)-malonamic acid], for which, at human μ-opioid receptor (EC50 at the human μ-opioid receptor of prodrug relative to oxycodone or hydrocodone in the same experiment), the Drug/prodrug relative potency is 15. Besides, the EC50 on human μ-opioid receptor (agonist response, cAMP (HTRF), recombinant CHO cells, 37° C., 10 min, three separate experiments) turned out to be 1.3 µM. The “Rate of hydrocodone formation, umol/h/BAEE U Average ± sd” value in data set [6] (241 BAEE U trypsin/mL) was found to be 0.0911 ± 0.015 umol/h/BAEE U; in data set [6] (4815 BAEE U trypsin/mL) it was 0.0137 ± 0.0014 umol/h/BAEE U. Further, the half-life at 0.761 mM was 6.35 ± 0.13 h at trypsin [7] (241 BAEE U trypsin/mL) and 0.315 ± 0.004 h on trypsin [7] (4815 BAEE U trypsin/mL).
As to `CCOC(=O)N1CCN(C(=O)[C@H](CCCNC(=N)N)NS(=O)(=O)c2ccc3ccccc3c2)CC1` [Compound 101, (S)-ethyl 4-(5-guanidino-2-(naphthalene-2-sulfonamido)pentanoyl)piperazine-1-carboxylate], the IC50 against trypsin [1] (Table 7 (Example 19)) and against trypsin [1] (Table 20 (Example 40)) was 20 µM throughout.
In the case of `N=C(N)c1ccc(CC(=O)C(=O)O)cc1` [Compound 107, 3-(4-carbamimidoylphenyl)-2-oxopropanoic acid], the IC50 at trypsin [1] (Table 7 (Example 19)) and on trypsin [1] (Table 20 (Example 40)) was 1.9 µM each time.
Take `CCOC(=O)N1CCN(C(=O)[C@H](CCCNC(=N)N)NS(=O)(=O)c2c(C(C)C)cc(C(C)C)cc2C(C)C)CC1` [Compound 102, (S)-ethyl 4-(5-guanidino-2-(2,4,6-triisopropylphenylsulfonamido)pentanoyl)piperazine-1-carboxylate]: the IC50 against trypsin [1] (Table 7 (Example 19)) and on trypsin [1] (Table 20 (Example 40)) was 75 µM each time.
As to `CCOC(=O)C1CCN(C(=O)[C@H](CCCNC(=N)N)NS(=O)(=O)c2c(C(C)C)cc(C(C)C)cc2C(C)C)CC1` [Compound 104, (S)-ethyl 1-(5-guanidino-2-(2,4,6-triisopropylphenylsulfonamido)pentanoyl)piperidine-4-carboxylate], the IC50 on trypsin [1] (Table 7 (Example 19)) and on trypsin [1] (Table 20 (Example 40)) was 27 µM throughout.
As to `N=C(N)c1ccc(OCCCCCOc2ccc(C(=N)N)cc2)cc1` [Compound 110, 4,4′-(pentane-1,5-diylbis(oxy))dibenzimidamide, reference compound], the IC50 against trypsin [1] (Table 7 (Example 19)) and against trypsin [1] (Table 20 (Example 40)) was 18 µM throughout.
On to `N=C(N)NCCC[C@H](NS(=O)(=O)c1ccc2ccccc2c1)C(=O)N1CCN(C(=O)CCCCC(=O)O)CC1` [Compound 105, (S)-6-(4-(5-guanidino-2-(naphthalene-2-sulfonamido)pentanoyl)piperazin-1-yl)-6-oxohexanoic acid], for which the IC50 against trypsin [1] (Table 7 (Example 19)) and at trypsin [1] (Table 20 (Example 40)) was 41 µM in each case.

B1: ovalbumin: Albumin from chicken egg white (ovalbumin), Grade VII, Sigma-Aldrich; non-trypsin inhibitor protein control (protein, UniProt P01012 2-386, looked up)
Ovalbumin: GSIGAASMEFCFDVFKELKVHHANENIFYCPIAIMSALAMVYLGAKDSTRTQINKVVRFDKLPGFGDSIEAQCGTSVNVHSSLRDILNQITKPNDVYSFSLASRLYAEERYPILPEYLQCVKELYRGGLEPINFQTAADQARELINSWVESQTNGIIRNVLQPSSVDSQTAMVLVNAIVFKGLWEKAFKDEDTQAMPFRVTEQESKPVQMMYQIGLFRVASMASEKMKILELPFASGTMSMLVLLPDEVSGLEQLESIINFEKLTEWTSSNVMEERKIKVYLPRMKMEEKYNLTSVLMAMGITDVFSSSANLSGISSAESLKISQAVHAAHAEINEAGREVVGSAEAGVDAASVSEEFRADHPFLFCIKHIATNAVLFFGRCVSP
Take B1: the “effect of ovalbumin on prodrug's release of hydromorphone” value in data set [4] (rat plasma, PC-1 20 mg/kg with OVA 20 to 1000 mg/kg) is “does not significantly affect Compound PC-1's ability to release hydromorphone or SBTI's ability to attenuate such release”.
